Ten molecules from patent US20240270821A1, “GIP/GLP1/GCG TRI-RECEPTOR AGONISTS AND USES THEREOF” (priority 2023, published 2024) can be followed below.

In general, EC50 refers to the concentration at which the effect is half-maximal.

What all share (type): cell-based
For experiment [1], the target named is T1, hGIPR (Homo sapiens, UniProt P48546).
T1 sequence (P48546 22-466): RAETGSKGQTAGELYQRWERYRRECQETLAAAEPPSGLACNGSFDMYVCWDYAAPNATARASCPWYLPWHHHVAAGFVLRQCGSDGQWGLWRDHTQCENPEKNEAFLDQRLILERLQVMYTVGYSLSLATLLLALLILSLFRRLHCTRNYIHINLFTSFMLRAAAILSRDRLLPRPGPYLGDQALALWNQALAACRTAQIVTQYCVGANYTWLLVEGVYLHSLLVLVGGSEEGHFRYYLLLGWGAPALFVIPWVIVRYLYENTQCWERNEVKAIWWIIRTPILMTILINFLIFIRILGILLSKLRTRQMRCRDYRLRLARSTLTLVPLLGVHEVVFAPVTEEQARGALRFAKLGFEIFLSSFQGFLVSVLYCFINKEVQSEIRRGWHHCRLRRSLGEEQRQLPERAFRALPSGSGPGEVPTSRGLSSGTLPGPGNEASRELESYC
Briefly: Functional cAMP activity in the presence of 1% HSA. Conditions: read-out: cAMP Rel EC50, hGIPR.

Experiment [2] deals with T2, hGLP-1R (Homo sapiens, UniProt P43220). Briefly: Functional cAMP activity in the presence of 1% HSA. Conditions: read-out: cAMP Rel EC50, hGLP-1R.
T2 sequence (P43220 24-463): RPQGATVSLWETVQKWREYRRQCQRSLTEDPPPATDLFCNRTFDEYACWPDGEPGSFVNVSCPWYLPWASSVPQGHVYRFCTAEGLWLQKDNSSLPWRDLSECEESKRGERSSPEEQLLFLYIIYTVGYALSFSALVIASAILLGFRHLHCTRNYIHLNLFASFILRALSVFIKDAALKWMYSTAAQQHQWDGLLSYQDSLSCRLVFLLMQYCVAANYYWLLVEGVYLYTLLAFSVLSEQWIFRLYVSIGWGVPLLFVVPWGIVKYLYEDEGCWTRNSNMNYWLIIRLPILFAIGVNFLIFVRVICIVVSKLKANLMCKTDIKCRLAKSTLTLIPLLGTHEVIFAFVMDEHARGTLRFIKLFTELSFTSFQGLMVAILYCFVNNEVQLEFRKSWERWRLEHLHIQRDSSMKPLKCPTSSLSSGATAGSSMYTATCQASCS
The target in a further experiment is human GcgR (Homo sapiens, UniProt P47871). Briefly: Functional cAMP activity in the presence of 1% HSA. Conditions: read-out: cAMP Rel EC50, hGcgR.
human GcgR, sequence (P47871 26-477): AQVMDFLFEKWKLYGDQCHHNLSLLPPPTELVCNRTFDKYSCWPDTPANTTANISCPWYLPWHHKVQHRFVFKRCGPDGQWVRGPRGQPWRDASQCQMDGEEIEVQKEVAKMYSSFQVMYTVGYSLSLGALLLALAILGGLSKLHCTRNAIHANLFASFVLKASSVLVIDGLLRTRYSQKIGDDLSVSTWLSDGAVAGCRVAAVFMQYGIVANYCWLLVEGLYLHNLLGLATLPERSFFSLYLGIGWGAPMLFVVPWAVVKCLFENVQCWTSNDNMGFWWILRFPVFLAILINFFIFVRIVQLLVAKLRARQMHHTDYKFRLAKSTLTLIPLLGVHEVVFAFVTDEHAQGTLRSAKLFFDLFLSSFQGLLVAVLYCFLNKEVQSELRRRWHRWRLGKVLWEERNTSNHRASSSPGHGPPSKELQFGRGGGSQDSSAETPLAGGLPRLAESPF
For experiment [3], the target named is T1, hGIPR. Briefly: Functional cAMP activation in the presence of 0.1% casein (no HSA). The settings on record: read-out: Relative cAMP EC50, hGIPR.
Experiment [4] has as its target T2, hGLP-1R. The description is as above. The settings on record: read-out: Relative cAMP EC50, hGLP-1R.
Method: After a 30-minute incubation at 37° C., the resulting increase in intracellular cAMP is quantitatively determined using the CisBio CAMP Dynamic 2 HTRF Assay Kit (62AM4PEJ). Briefly, cAMP levels within the cell are detected by adding the cAMP-d2 conjugate in cell lysis buffer followed by the antibody anti-cAMP-Eu^3+-Cryptate, also in cell lysis buffer.
Intracellular cAMP levels are determined by extrapolation using a standard curve. Dose response curves of compounds are plotted as the percentage of stimulation normalized to minimum (buffer only) and maximum (maximum concentration of each control ligand) values and analyzed using a four parameter non-linear regression fit with a variable slope (Genedata Screener 13). EC50 is the concentration of compound causing half-maximal simulation in a dose response curve. Each relative EC50 value for the Geometric mean calculation is determined from a curve fitting.
The target in the next experiment is hGcgR (Homo sapiens, UniProt P47871). The description is as above. The settings on record: read-out: Relative cAMP EC50, hGcgR.
hGcgR, sequence (P47871 26-477): as above
[5] abbreviates: in the presence of 0.1% casein (no HSA), geometric mean.

Read-outs that look alike come from different tables or passages of the source. Starred links: 1 amine or outer side, 2 acyl side, 3 side chain; linkers in the order of their positions; H or OH if unused. Non-standard residues stand in square brackets, D forms with d. Residues, ends and D or L forms follow the SMILES beside them. Groups on a side chain read outwards from the residue. No end group written: not given here. *: point of attachment. C18 diacid = O=C(O)CCCCCCCCCCCCCCCCC(=O)*; αMePhe(2-F) = C[C@](N)(Cc1ccccc1F)C(=O)O; γGlu = O=C(O)[C@H](CCC(=O)[*:2])N[*:1]; αMe4Pal = C[C@](N)(Cc1ccncc1)C(=O)O; αMeY = C[C@](N)(Cc1ccc(O)cc1)C(=O)O; αMeF = C[C@](N)(Cc1ccccc1)C(=O)O; 4Pal = N[C@@H](Cc1ccncc1)C(=O)O; αMeL = CC(C)C[C@](C)(N)C(=O)O; αMeS = C[C@](N)(CO)C(=O)O; Orn = NCCC[C@H](N)C(=O)O; AEEA = NCCOCCOCC(=O)O; Aib = CC(C)(N)C(=O)O
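For Relative cAMP EC50, hGIPR in this document: intracellular cAMP rise after 30 min at 37 °C read by HTRF against a standard curve, scaled between buffer alone (0%) and top control ligand concentration (100%), four-parameter fit.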
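For Relative cAMP EC50, hGLP-1R in this document: intracellular cAMP rise after 30 min at 37 °C read by HTRF, normalized between buffer only (0%) and maximal control ligand (100%), four-parameter variable-slope fit.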
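For Relative cAMP EC50, hGcgR in this document: intracellular cAMP rise after 30 min at 37 °C, read by HTRF against a cAMP standard curve, scaled from buffer only (0%) to maximal control ligand response (100%).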

For `CC[C@H](C)[C@H](NC(=O)[C@H](Cc1ccccc1)NC(=O)[C@H](C)NC(=O)C(C)(C)NC(=O)[C@H](CCC(N)=O)NC(=O)[C@H](C)NC(=O)[C@H](CCCCNC(=O)COCCOCCNC(=O)CC[C@H](NC(=O)CCCCCCCCCCCCCCCCC(=O)O)C(=O)O)NC(=O)[C@H](CCCCN)NC(=O)[C@H](CC(=O)O)NC(=O)[C@H](CC(C)C)NC(=O)[C@](C)(CC(C)C)NC(=O)[C@H](CCCN)NC(=O)[C@H](CO)NC(=O)[C@H](Cc1ccccc1)NC(=O)[C@H](CC(=O)O)NC(=O)[C@H](CO)NC(=O)[C@@H](NC(=O)[C@H](Cc1ccccc1)NC(=O)[C@@H](NC(=O)CNC(=O)[C@H](CCC(N)=O)NC(=O)C(C)(C)NC(=O)[C@@H](N)Cc1ccc(O)cc1)[C@@H](C)O)[C@@H](C)O)C(=O)N[C@@H](CCC(=O)O)C(=O)N[C@@H](Cc1ccc(O)cc1)C(=O)N[C@@H](CC(C)C)C(=O)N[C@@H](CC(C)C)C(=O)N[C@@H](CCC(=O)O)C(=O)N[C@H](C)C(=O)NCC(=O)N1CCC[C@H]1C(=O)N[C@@H](CO)C(=O)N[C@@H](CO)C(=O)NCC(=O)N[C@@H](C)C(=O)N1CCC[C@H]1C(=O)N1CCC[C@H]1C(=O)N1CCC[C@H]1C(=O)N[C@@H](CO)C(=O)NCC(=O)N[C@@H](Cc1c[nH]cn1)C(N)=O` [Example 259], the EC50 was determined as 18.4 nM at hGIPR [1]; 220 nM on hGLP-1R [2]; 317 nM on human GcgR; 0.114 nM on hGIPR [3] (setting [5]); 1.47 nM at hGLP-1R [4] (setting [5]); 2.55 nM at hGcgR (setting [5]).

In the case of “Y[Aib]QGTFTSD[4Pal]S[Orn][αMeL]LD[Orn]K([γGlu-γGlu-C18 diacid])AQ[αMe4Pal]AFIEYLIAGGPSSGAPPPSGSE-NH2 [Example 1011]”, the 50% effective concentration (EC50) at hGIPR [1] was determined as 13.5 nM; at hGLP-1R [2] it was 148 nM; on human GcgR it was 459 nM; on hGIPR [3] (setting [5]), 0.21 nM; on hGLP-1R [4] (setting [5]), 2.13 nM; on hGcgR (setting [5]), 5.27 nM.

As for `CC[C@H](C)[C@H](NC(=O)[C@H](Cc1ccccc1)NC(=O)[C@H](C)NC(=O)C(C)(C)NC(=O)[C@H](CCC(N)=O)NC(=O)[C@H](C)NC(=O)[C@H](CCCCNC(=O)COCCOCCNC(=O)CC[C@H](NC(=O)CCCCCCCCCCCCCCCCC(=O)O)C(=O)O)NC(=O)[C@H](CCCCN)NC(=O)[C@H](CC(=O)O)NC(=O)[C@H](CC(C)C)NC(=O)[C@H](CC(C)C)NC(=O)[C@@H](NC(=O)[C@](C)(CO)NC(=O)[C@H](Cc1ccc(O)cc1)NC(=O)[C@H](CC(=O)O)NC(=O)[C@H](CO)NC(=O)[C@@H](NC(=O)[C@](C)(Cc1ccccc1)NC(=O)[C@@H](NC(=O)CNC(=O)[C@H](CCC(N)=O)NC(=O)C(C)(C)NC(=O)[C@@H](N)Cc1ccc(O)cc1)[C@@H](C)O)[C@@H](C)O)[C@@H](C)CC)C(=O)N[C@@H](CCC(=O)O)C(=O)N[C@@H](Cc1ccc(O)cc1)C(=O)N[C@@H](CC(C)C)C(=O)N[C@@H](CCC(=O)O)C(=O)N[C@@H](CCC(=O)O)C(=O)NCC(=O)NCC(=O)N1CCC[C@H]1C(=O)N[C@@H](CO)C(=O)N[C@@H](CO)C(=O)NCC(=O)N[C@@H](C)C(=O)N1CCC[C@H]1C(=O)N1CCC[C@H]1C(=O)N1CCC[C@H]1C(=O)N[C@@H](CO)C(N)=O` [Example 393] (H-Y[Aib]QGT[αMeF]TSDY[αMeS]ILLDKK([AEEA-γGlu-C18 diacid])AQ[Aib]AFIEYLEEGGPSSGAPPPS-NH2), the EC50 on hGIPR [1] stood at 12.4 nM; on hGLP-1R [2], 29.6 nM; at human GcgR, 151 nM; on hGIPR [3] it was 0.0458 nM; on hGLP-1R [4], 0.211 nM; on hGcgR it was 0.947 nM.

Consider “H-Y[Aib]QGTFTSDFS[Orn][αMeL]LDKK([AEEA-γGlu-C18 diacid])AQ[Aib]AFIEYLLEGGPSSGAPPPGG[4Pal]-NH2 [Example 261]”, for which the EC50 turned out to be 38.4 nM at hGIPR [1]; 383 nM on hGLP-1R [2]; 520 nM on human GcgR; 0.29 nM on hGIPR [3] (setting [5]); 3.12 nM on hGLP-1R [4] (setting [5]); 5.49 nM at hGcgR (setting [5]).

With `CC[C@H](C)[C@H](NC(=O)[C@H](CC(C)C)NC(=O)[C@](C)(Cc1ccc(O)cc1)NC(=O)[C@H](CCC(=O)O)NC(=O)[C@@H](NC(=O)[C@H](Cc1ccccc1)NC(=O)[C@H](CCC(N)=O)NC(=O)[C@](C)(Cc1ccncc1)NC(=O)[C@H](CCC(N)=O)NC(=O)[C@H](C)NC(=O)[C@H](CCCCNC(=O)COCCOCCNC(=O)CC[C@H](NC(=O)CCCCCCCCCCCCCCCCC(=O)O)C(=O)O)NC(=O)[C@H](CCCN)NC(=O)[C@H](CC(=O)O)NC(=O)[C@H](CC(C)C)NC(=O)[C@](C)(CC(C)C)NC(=O)[C@H](CCC(N)=O)NC(=O)[C@H](CO)NC(=O)[C@H](Cc1ccncc1)NC(=O)[C@H](CC(=O)O)NC(=O)[C@H](CO)NC(=O)[C@@H](NC(=O)[C@H](Cc1ccccc1)NC(=O)[C@@H](NC(=O)CNC(=O)[C@H](CCC(N)=O)NC(=O)C(C)(C)NC(=O)[C@@H](N)Cc1ccc(O)cc1)[C@@H](C)O)[C@@H](C)O)[C@@H](C)CC)C(=O)N[C@@H](C)C(=O)NC(C)(C)C(=O)NCC(=O)N1CCC[C@H]1C(=O)N[C@@H](CO)C(=O)N[C@@H](CO)C(=O)NCC(=O)N[C@@H](C)C(=O)N1CCC[C@H]1C(=O)N1CCC[C@H]1C(=O)N1CCC[C@H]1C(=O)N[C@@H](CO)C(=O)NCC(=O)N[C@@H](CO)C(=O)N[C@@H](CCC(=O)O)C(=O)N[C@@H](CCC(=O)O)C(N)=O` [Example 1111], the EC50 is 3.66 nM on hGIPR [1]; 51.3 nM on hGLP-1R [2]; 299 nM at human GcgR; 0.0356 nM on hGIPR [3] (setting [5]); 1.14 nM on hGLP-1R [4] (setting [5]); 5.28 nM on hGcgR (setting [5]).

“H-Y[Aib]QGTFTSDFS[Orn][αMeL]LDKK([γGlu-γGlu-γGlu-C18 diacid])AQ[Aib]AFIEYLLE[Aib]GPSSGAPPPSGS-NH2 [Example 202]”: the EC50 on hGIPR [1] is 11.7 nM; at hGLP-1R [2] it was 376 nM; at human GcgR it was 697 nM; on hGIPR [3] (setting [5]) it was 0.0965 nM; at hGLP-1R [4] (setting [5]), 4.79 nM; on hGcgR (setting [5]), 11.4 nM.

Regarding “H-Y[Aib]QGT[αMePhe(2-F)]TSD[4Pal][αMeS]I[αMeL]LD[Orn]K([AEEA-γGlu-C18 diacid])AQ[αMe4Pal]EFI[dE][αMeY]LVEGGPSSGEPPPTGE-NH2 [Example 1153]”, the 50% effective concentration (EC50) on hGIPR [1] came to 1.39 nM; on hGLP-1R [2], 52.7 nM; on human GcgR it was 215 nM; at hGIPR [3] (setting [5]) it was 0.0109 nM; at hGLP-1R [4] (setting [5]) it was 0.33 nM; on hGcgR (setting [5]), 2.69 nM.

For “H-Y[Aib]QGT[αMePhe(2-F)]TSD[4Pal][αMeS]I[αMeL]LD[Orn]K([γGlu-γGlu-C18 diacid])AQ[Aib][Orn]FI[dE][αMeY]LSEGGPSSGEPPPSGTE-NH2 [Example 517]”, the EC50 at hGIPR [1] amounted to 9.12 nM; on hGLP-1R [2] it was 50 nM; at human GcgR, 337 nM; on hGIPR [3], 0.158 nM; on hGLP-1R [4], 0.646 nM; on hGcgR, 4.69 nM.

For “H-Y[Aib]QGTFTSDFS[Orn][αMeL]LDKK([AEEA-γGlu-C18 diacid])AQ[Aib]AFIEYLLE[Aib]GHSSGAPPPSGE-NH2 [Example 247]”, the half-maximal effective concentration (EC50) on hGIPR [1] came out at 12.9 nM; at hGLP-1R [2], 291 nM; at human GcgR, 443 nM; on hGIPR [3] (setting [5]), 0.0794 nM; at hGLP-1R [4] (setting [5]), 2.8 nM; at hGcgR (setting [5]), 1.76 nM.

In the case of “H-Y[Aib]QGT[αMePhe(2-F)]TSD[4Pal]SILLDKK([γGlu-γGlu-C18 diacid])AQ[Aib]AFIEYLEEGGPSSGAPPPSGEEE-NH2 [Example 611]”, the half-maximal effective concentration (EC50) turned out to be 7.35 nM at hGIPR [1]; 146 nM at hGLP-1R [2]; 627 nM on human GcgR; 0.126 nM at hGIPR [3]; 1.63 nM at hGLP-1R [4]; 6.8 nM on hGcgR.
